Measured values from US20260167615A1, “COMPOUNDS AND COMPOSITIONS AS GPR52 MODULATORS” (Neurocrine Biosciences, Inc., priority 2022, published 2026).
Like-named read-outs stand apart in the source and are kept apart here.

Biological target: recombinant human GPR52 (Homo sapiens, UniProt Q9Y2T5)
Assay: HTRF cAMP assay, GPR52 activity (Example A)
Assay type: cell-based
Conditions: for Emax: maximum cAMP at 10 μM or 31.6 μM test compound, as percentage of Emax of control compound 4-(3-(3-fluoro-5-(trifluoromethyl)benzyl)-5-methyl-4,5-dihydro-1H-1,2,4-triazol-1-yl)-2-methylbenzamide
Procedure: Compounds of Formula I were assessed for their ability to modulate GPR52 activity. HTRF CAMP assays were performed using a commercially available assay kit (CAMP Gs HiRange HTRF®, CisBio). Controls and compounds were solubilized in DMSO and 62.5 nanoliters of the diluted compounds were transferred into 384-well NBS assay plates via acoustic or precision low-volume dispensing. Compounds were further diluted to 1× with the addition of 20,000 cells per well. Flp-In™—CHO cells that stably express recombinant human GPR52 were used in the assay.
Cells were harvested with cell stripper and resuspended in stimulation buffer. After thirty minutes incubation at room temperature, detection reagents were added to each well. Plates were then incubated for an additional 30 minutes at room temperature. CAMP produced by the cells during the first incubation period competes with d2-labeled CAMP for binding to an anti-cAMP monoclonal antibody labeled with europium cryptate. The measured signal was inversely proportional to the concentration of cAMP produced by the cells and this signal was quantified using a PHERAstar® multi-mode plate reader.
Dose-response curves were generated from the HTRF counts that have been transformed based on a CAMP referenced curve, and then normalized to the positive control. EC50 values were obtained using a nonlinear regression curve-fitting program. […] The Emax (Table 13) is the maximum amount of cAMP (nM) produced by incubation of the cells with 10 μM or 31.6 μM of a test compound. The compound is defined by the top plateau of the sigmoid curve fit. The curve is then normalized to a control compound, in this case 4-(3-(3-fluoro-5-(trifluoromethyl)benzyl)-5-methyl-4,5-dihydro-1H-1,2,4-triazol-1-yl)-2-methylbenzamide (Tokumaru, K., et al., “Design, synthesis, and pharmacological evaluation of 4-azolyl-benzamide derivatives as novel GPR52 agonists”, Bioorganic & Medicinal Chemistry, Volume 25, Issue 12, June 2017, pages 3098-3115), and expressed as a percentage of the Emax of that control compound.

[1] = average EC50 (n=1 to 15), Flp-In-CHO cells stably expressing recombinant human GPR52, cAMP HTRF, read-out: EC50 (N=)

Sequence of recombinant human GPR52 (Q9Y2T5 whole entry): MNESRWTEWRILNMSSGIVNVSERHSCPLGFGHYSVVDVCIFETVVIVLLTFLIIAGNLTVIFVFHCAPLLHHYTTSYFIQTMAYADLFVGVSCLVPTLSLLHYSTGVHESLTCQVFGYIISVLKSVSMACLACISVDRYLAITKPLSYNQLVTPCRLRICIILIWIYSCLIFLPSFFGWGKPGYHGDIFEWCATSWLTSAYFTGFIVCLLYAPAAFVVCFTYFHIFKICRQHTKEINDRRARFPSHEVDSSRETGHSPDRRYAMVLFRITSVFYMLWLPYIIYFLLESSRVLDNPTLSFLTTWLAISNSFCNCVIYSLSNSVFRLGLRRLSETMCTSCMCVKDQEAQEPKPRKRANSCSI

EC50 [1] [nM]	Emax [%]	EC50 (comparison of position of the nitrogen in the pyridine ring relative to the oxygen linker, read-out: Activity EC50) [nM]	EC50 (Flp-In-CHO cells expressing human GPR52, read-out: average EC50) [nM]	Structure (SMILES)
101 to 1000	150	–	–	Cc1cnc2ccc(Oc3ccnc(-c4ccc(C(N)=O)c(C)c4)c3)cc2c1 [Example 108, 2-methyl-4-(4-((3-methylquinolin-6-yl)oxy)pyridin-2-yl)benzamide]
101 to 1000	129	–	–	Cc1cc(-c2cc(Oc3ccc4cnn(C)c4c3)cc(CN)n2)ccc1C(N)=O [Example 94, 4-(6-(aminomethyl)-4-((1-methyl-1H-indazol-6-yl)oxy)pyridin-2-yl)-2-methylbenzamide]
101 to 1000	84	–	–	CNC(=O)c1ccc(-c2cc(Oc3ccc4cnn(C)c4c3)ccn2)cc1C [Example 62, N,2-dimethyl-4-(4-((1-methyl-1H-indazol-6-yl)oxy)pyridin-2-yl)benzamide]
101 to 1000	99	–	–	Cc1cc(-c2cc(Oc3ccc4cnn(C)c4c3)cc(N)n2)ccc1C(N)=O [Example 21, 4-(6-amino-4-((1-methyl-1H-indazol-6-yl)oxy)pyridin-2-yl)-2-methylbenzamide]
101 to 1000	103	–	–	CCc1cc(-c2cccc(Oc3cnc4c(C)nn(C)c4c3)c2)ccc1C(N)=O [Example 32, 3′-((1,3-dimethyl-1H-pyrazolo[4,3-b]pyridin-6-yl)oxy)-3-ethyl-[1,1′-biphenyl]-4-carboxamide]
–	–	89	–	Cc1cc(-c2cc(Oc3ccc4c(c3)c(C)nn4C)ccn2)ccc1C(N)=O [drawing 5]
101 to 1000	117	–	–	CCc1cc(-c2cc(Oc3ccc4c(C)nn(C(F)(F)F)c4c3)ccn2)ccc1C(N)=O [Example 134, 2-ethyl-4-(4-((3-methyl-1-(trifluoromethyl)-1H-indazol-6-yl)oxy)pyridin-2-yl)benzamide]
101 to 1000	88	–	–	CCc1cc(-c2cc(Oc3cnc4c(c3)CCCO4)ccn2)ccc1C(N)=O [Example 123, 4-(4-((3,4-dihydro-2H-pyrano[2,3-b]pyridin-6-yl)oxy)pyridin-2-yl)-2-ethylbenzamide]
101 to 1000	90	–	–	CCc1cc(-c2cc(Oc3ccc4nccnc4c3)ccn2)ccc1C(N)=O [Example 125, 2-ethyl-4-(4-(quinoxalin-6-yloxy)pyridin-2-yl)benzamide]
101 to 1000	100	–	–	CCc1cc(-c2cc(Oc3ccc4ncccc4c3F)ccn2)ccc1C(N)=O [Example 106, 2-ethyl-4-(4-((5-fluoroquinolin-6-yl)oxy)pyridin-2-yl)benzamide]
101 to 1000	120	–	–	Cc1cc(-c2cc(Oc3ccc4ncc(F)cc4c3)ccn2)ccc1C(N)=O [Example 96, 4-(4-((3-fluoroquinolin-6-yl)oxy)pyridin-2-yl)-2-methylbenzamide]
101 to 1000	68	–	–	Cc1cc(-c2cc(Oc3ccc4ccoc4c3)ccn2)ccc1C(N)=O [Example 87, 4-(4-(benzofuran-6-yloxy)pyridin-2-yl)-2-methylbenzamide]
101 to 1000	98	–	–	CCc1cc(-c2cc(Oc3ccc4cnn(C)c4c3)ccn2)ccc1C(N)=O [Example 2, 2-ethyl-4-{4-[(1-methyl-1H-indazol-6-yl)oxy]pyridin-2-yl}benzamide]
101 to 1000	81	–	–	Cc1cc(-c2cc(Oc3ccc4c(C(F)(F)F)nn(C)c4c3)ccn2)ccc1C(N)=O [Example 37, 2-methyl-4-(4-((1-methyl-3-(trifluoromethyl)-1H-indazol-6-yl)oxy)pyridin-2-yl)benzamide]
101 to 1000	116	–	–	Cc1cc(-c2cc(Oc3cnc4c(F)nn(C)c4c3)ccn2)ccc1C(N)=O [Example 127, 4-(4-((3-fluoro-1-methyl-1H-pyrazolo[4,3-b]pyridin-6-yl)oxy)pyridin-2-yl)-2-methylbenzamide]
101 to 1000	75	–	–	CCc1cc(-c2cc(Oc3cnc4c(C(F)(F)F)cccc4c3)ccn2)ccc1C(N)=O [Example 109, 2-ethyl-4-(4-((8-(trifluoromethyl)quinolin-3-yl)oxy)pyridin-2-yl)benzamide]
101 to 1000	90	–	–	CCc1cc(-c2cc(Oc3cnc4c(F)cccc4c3)ccn2)ccc1C(N)=O [Example 102, 2-ethyl-4-(4-((8-fluoroquinolin-3-yl)oxy)pyridin-2-yl)benzamide]

EC50 [1] [nM]	Emax [%]	EC50 (comparison of position of the nitrogen in the pyridine ring relative to the oxygen linker, read-out: Activity EC50) [nM]	EC50 (Flp-In-CHO cells expressing human GPR52, read-out: average EC50) [nM]	Structure (SMILES)
101 to 1000	87	–	–	CCc1cc(-c2cccc(Oc3cnc4c(C)nn(C)c4c3)c2)ccc1C(=O)NC [Example 66, 3′-((1,3-dimethyl-1H-pyrazolo[4,3-b]pyridin-6-yl)oxy)-3-ethyl-N-methyl-[1,1′-biphenyl]-4-carboxamide]
25 to 100	103	–	83	Cc1cc(-c2cc(Oc3ccc4c(C)nn(C)c4c3)ccn2)ccc1C(N)=O [Example 25, 4-(4-((1,3-dimethyl-1H-indazol-6-yl)oxy)pyridin-2-yl)-2-methylbenzamide]
101 to 1000	81	–	–	CCc1cc(-c2cc(Oc3ccc4c(C(F)(F)F)nn(C)c4c3)ccn2)ccc1C(=O)NC [Example 64, 2-ethyl-N-methyl-4-(4-((1-methyl-3-(trifluoromethyl)-1H-indazol-6-yl)oxy)pyridin-2-yl)benzamide]
25 to 100	146	–	–	CCc1cc(-c2cc(Oc3ccc4ncc(C)cc4c3)ccn2)ccc1C(N)=O [Example 107, 2-ethyl-4-(4-((3-methylquinolin-6-yl)oxy)pyridin-2-yl)benzamide]
101 to 1000	110	–	–	Cc1cc(-c2cc(Oc3ccc4nn(C)cc4c3)ccn2)ccc1C(N)=O [Example 6, 2-methyl-4-(4-((2-methyl-2H-indazol-5-yl)oxy)pyridin-2-yl)benzamide]
101 to 1000	114	–	–	CCc1cc(-c2cc(Oc3cnc4c(F)nn(C)c4c3)ccn2)ccc1C(N)=O [Example 131, 2-ethyl-4-(4-((3-fluoro-1-methyl-1H-pyrazolo[4,3-b]pyridin-6-yl)oxy)pyridin-2-yl)benzamide]
101 to 1000	120	–	–	Cc1cc(-c2cc(Oc3cc(F)c4ncc(F)cc4c3)ccn2)ccc1C(N)=O [Example 119, 4-(4-((3,8-difluoroquinolin-6-yl)oxy)pyridin-2-yl)-2-methylbenzamide]
101 to 1000	100	–	–	CCc1cc(-c2cc(Oc3cnc4c(F)c(F)ccc4c3)ccn2)ccc1C(N)=O [Example 115, 4-(4-((7,8-difluoroquinolin-3-yl)oxy)pyridin-2-yl)-2-ethylbenzamide]
101 to 1000	153	–	–	Cc1cc(-c2cc(Oc3ccc4occc4c3)ccn2)ccc1C(N)=O [Example 83, 4-(4-(benzofuran-5-yloxy)pyridin-2-yl)-2-methylbenzamide]
101 to 1000	103	–	–	Cc1cc(-c2cc(Oc3ccc4cnn(C)c4c3)ccn2)ccc1C(N)=O [Example 43, 2-methyl-4-(4-((1-methyl-1H-indazol-6-yl)oxy)pyridin-2-yl)benzamide]
101 to 1000	80	–	–	CCc1cc(-c2cc(Oc3cnc4cc(F)ccc4c3)ccn2)ccc1C(N)=O [Example 101, 2-ethyl-4-(4-((7-fluoroquinolin-3-yl)oxy)pyridin-2-yl)benzamide]
101 to 1000	88	–	–	Cn1ncc2ccc(Oc3ccnc(-c4ccc(C(N)=O)c(Cl)c4)c3)cc21 [Example 45, 2-chloro-4-(4-((1-methyl-1H-indazol-6-yl)oxy)pyridin-2-yl)benzamide]
101 to 1000	99	–	–	CCc1cc(-c2cc(Oc3cnc4cnn(C)c4c3)ccn2)ccc1C(N)=O [Example 27, 2-ethyl-4-(4-((1-methyl-1H-pyrazolo[4,3-b]pyridin-6-yl)oxy)pyridin-2-yl)benzamide]
101 to 1000	103	–	–	Cc1cc(-c2cc(Oc3cnc4c(c3)c(F)nn4C)ccn2)ccc1C(N)=O [Example 126, 4-(4-((3-fluoro-1-methyl-1H-pyrazolo[3,4-b]pyridin-5-yl)oxy)pyridin-2-yl)-2-methylbenzamide]
101 to 1000	67	–	–	Cc1cc(-c2cc(Oc3ccc4cccnc4c3)ccn2)ccc1C(N)=O [Example 88, 2-methyl-4-(4-(quinolin-7-yloxy)pyridin-2-yl)benzamide]
101 to 1000	137	–	–	CCc1cc(-c2cc(Oc3cnc4ccc(Cl)cc4c3)ccn2)ccc1C(N)=O [Example 110, 4-(4-((6-chloroquinolin-3-yl)oxy)pyridin-2-yl)-2-ethylbenzamide]
101 to 1000	110	–	–	Cc1cc(-c2cc(Oc3cnc4c(c3)c(C)nn4C)ccn2)ccc1C(N)=O [Example 54, 4-(4-((1,3-dimethyl-1H-pyrazolo[3,4-b]pyridin-5-yl)oxy)pyridin-2-yl)-2-methylbenzamide]
